Assay results from PubChem BioAssay AID248 (DTP/NCI, 2004).
Values joined by “and” are separate entries in the source; they are usually repeats but may differ in a detail not shown here. Identical values can stand only once. Toxic doses and inconclusive results are not listed. Rule as the data show it: active = T/C of 150% or more; inactive = T/C below 125%.

Test system: L1210 leukemia ip in BDF1 mice, survival T/C
Test: NCI In Vivo Anticancer Drug Screen. Data for tumor model L1210 Leukemia (intraperitoneal) in B6D2F1 (BDF1) mice
Conditions: endpoint: mean survival time, higher = longer survival
Summary of the method: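 Transplantable tumor model; survival measured in treated vs vehicle control mice. Value = treated/control.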

[1] = dose: 100.0 mg/kg/injection, schedule: Q04DX002 (ip), vehicle: Klucel (hydroxypropylcellulose) (HPC)
[2] = dose: 200.0 mg/kg/injection, schedule: Q04DX002 (ip), vehicle: Klucel (hydroxypropylcellulose) (HPC)
[3] = dose: 400.0 mg/kg/injection, schedule: Q04DX002 (ip), vehicle: Klucel (hydroxypropylcellulose) (HPC)
[4] = dose: 100.0 mg/kg/injection, schedule: Q01DX001 (ip), vehicle: Klucel (hydroxypropylcellulose) (HPC)
[5] = dose: 100.0 mg/kg/injection, schedule: Q04DX003 (ip), vehicle: Klucel (hydroxypropylcellulose) (HPC)
[6] = dose: 200.0 mg/kg/injection, schedule: Q01DX001 (ip), vehicle: Klucel (hydroxypropylcellulose) (HPC)
[7] = dose: 400.0 mg/kg/injection, schedule: Q01DX001 (ip), vehicle: Klucel (hydroxypropylcellulose) (HPC)
[8] = dose: 400.0 mg/kg/injection, schedule: Q04DX003 (ip), vehicle: Klucel (hydroxypropylcellulose) (HPC)
[9] = dose: 50.0 mg/kg/injection, schedule: Q01DX001 (ip), vehicle: saline
[10] = dose: 100.0 mg/kg/injection, schedule: Q01DX001 (ip), vehicle: saline
[11] = dose: 200.0 mg/kg/injection, schedule: Q01DX001 (ip), vehicle: saline
[12] = dose: 400.0 mg/kg/injection, schedule: Q01DX001 (ip), vehicle: saline
[13] = dose: 200.0 mg/kg/injection, schedule: Q04DX003 (ip), vehicle: Klucel (hydroxypropylcellulose) (HPC)
[14] = dose: 100.0 mg/kg/injection, schedule: Q01DX009 (ip), vehicle: saline with Tween-80
[15] = dose: 200.0 mg/kg/injection, schedule: Q01DX009 (ip), vehicle: saline with Tween-80
[16] = dose: 400.0 mg/kg/injection, schedule: Q01DX009 (ip), vehicle: saline with Tween-80
[17] = dose: 100.0 mg/kg/injection, schedule: Q01DX009 (ip), vehicle: Klucel (hydroxypropylcellulose) (HPC)
[18] = dose: 200.0 mg/kg/injection, schedule: Q01DX009 (ip), vehicle: Klucel (hydroxypropylcellulose) (HPC)
[19] = dose: 100.0 mg/kg/injection, schedule: Q01DX009 (ip), vehicle: other
[20] = dose: 100.0 mg/kg/injection, schedule: Q04DX003 (ip), vehicle: saline
[21] = dose: 200.0 mg/kg/injection, schedule: Q01DX009 (ip), vehicle: other
[22] = dose: 200.0 mg/kg/injection, schedule: Q04DX003 (ip), vehicle: saline
[23] = dose: 400.0 mg/kg/injection, schedule: Q01DX009 (ip), vehicle: other
[24] = dose: 400.0 mg/kg/injection, schedule: Q04DX003 (ip), vehicle: saline
[25] = dose: 100.0 mg/kg/injection, schedule: Q04DX003 (ip), vehicle: saline with Tween-80
[26] = dose: 200.0 mg/kg/injection, schedule: Q04DX003 (ip), vehicle: saline with Tween-80
[27] = dose: 400.0 mg/kg/injection, schedule: Q04DX003 (ip), vehicle: saline with Tween-80

Measured: T/C

CS(=O)(=O)Oc1nn2c(OS(C)(=O)=O)nnc2s1
inactive: dose: 5.0 mg/kg/injection, schedule: Q01DX001 (ip), vehicle: saline 104 % of control | dose: 8.8 mg/kg/injection, schedule: Q01DX001 (ip), vehicle: saline 101 % of control and 90 % of control | dose: 10.0 mg/kg/injection, schedule: Q01DX001 (ip), vehicle: saline 109 % of control | dose: 13.3 mg/kg/injection, schedule: Q01DX001 (ip), vehicle: saline 98 % of control and 110 % of control | dose: 20.0 mg/kg/injection, schedule: Q01DX001 (ip), vehicle: saline 98 % of control and 104 % of control | dose: 30.0 mg/kg/injection, schedule: Q01DX001 (ip), vehicle: saline 104 % of control

O=C(Oc1ccc(Cl)cc1Cl)c1ccc([N+](=O)[O-])cc1
inactive: [1] 93 % of control | [2] 97 % of control | [3] 87 % of control

CC(=O)N(C(=O)c1ccccc1)c1ccc(NS(=O)(=O)c2ccc(C)cc2)cc1
inactive: [4] 91 % of control | [5] 94 % of control | [6] 100 % of control | [7] 100 % of control | [8] 90 % of control

O=C(c1ccccc1)c1ccc(O)c([N+](=O)[O-])c1
inactive: dose: 25.0 mg/kg/injection, schedule: Q04DX002 (ip), vehicle: Klucel (hydroxypropylcellulose) (HPC) 113 % of control | dose: 50.0 mg/kg/injection, schedule: Q04DX002 (ip), vehicle: Klucel (hydroxypropylcellulose) (HPC) 100 % of control | [1] 90 % of control

CC(=O)/C=C/c1ccccc1O
inactive: dose: 75.0 mg/kg/injection, schedule: Q04DX002 (ip), vehicle: gum acacia 98 % of control | dose: 150.0 mg/kg/injection, schedule: Q04DX002 (ip), vehicle: gum acacia 100 % of control | dose: 300.0 mg/kg/injection, schedule: Q04DX002 (ip), vehicle: gum acacia 100 % of control

CCSC(C(Nc1ccc([N+](=O)[O-])cc1[N+](=O)[O-])C(O)C(O)C(O)CO)n1cc(C)c(=O)[nH]c1=O (stereo not drawn)
inactive: [9] 97 % of control | [10] 100 % of control | [11] 100 % of control | [12] 100 % of control

CC(OCCC#N)C(C)OCCC#N (stereo not drawn)
inactive: dose: 44.0 mg/kg/injection, schedule: Q01DX001 (ip), vehicle: saline 93 % of control | dose: 45.0 mg/kg/injection, schedule: Q01DX001 (ip), vehicle: saline 102 % of control | [9] 98 % of control | dose: 67.0 mg/kg/injection, schedule: Q01DX001 (ip), vehicle: saline 96 % of control and 104 % of control | [10] 98 % of control and 101 % of control (2×) | dose: 150.0 mg/kg/injection, schedule: Q01DX001 (ip), vehicle: saline 101 % of control and 102 % of control | [11] 98 % of control | [12] 98 % of control

c1ccc(C[N+]23CCC(CC2)CC3)cc1
inactive: dose: 3.13 mg/kg/injection, schedule: Q01DX009 (ip), vehicle: saline 95 % of control | dose: 6.25 mg/kg/injection, schedule: Q01DX009 (ip), vehicle: saline 99 % of control | dose: 12.5 mg/kg/injection, schedule: Q01DX009 (ip), vehicle: saline 101 % of control

O=C1c2ccccc2S(=O)(=O)N1CCN1C(=O)c2ccccc2S1(=O)=O
inactive: [5] 94 % of control | [13] 93 % of control | [8] 94 % of control

N=C(N)Sc1n[nH]c(=O)[nH]c1=O
inactive: dose: 75.0 mg/kg/injection, schedule: Q01DX001 (ip), vehicle: alcohol 100 % of control | dose: 150.0 mg/kg/injection, schedule: Q01DX001 (ip), vehicle: alcohol 90 % of control

O=C(NO)C1CCC(C(=O)NO)CC1 (stereo not drawn)
inactive: [14] 92 % of control | [15] 89 % of control | [16] 89 % of control

CC1CC(C#N)C(CCC#N)CC1C (stereo not drawn)
inactive: [17] 104 % of control | [5] 93 % of control | [18] 106 % of control | [13] 102 % of control | [8] 100 % of control

CC(C)CC(Br)C(=O)NCC(=O)O (stereo not drawn)
inactive: [14] 88 % of control | [15] 91 % of control | [16] 89 % of control

Cc1ccc(S(=O)(=O)Nc2ccccc2-c2nc3c(Cl)ccc(Cl)c3c(=O)o2)cc1
inactive: [19] 105 % of control | [20] 88 % of control | [21] 96 % of control | [22] 93 % of control | [23] 104 % of control | [24] 90 % of control

COc1cc2c3c(c1O)-c1c(ccc(OC)c1OC)CC3N(C)CC2 (stereo not drawn)
inactive: dose: 100.0 mg/kg/injection, schedule: Q01DX001 (ip), vehicle: saline with Tween-80 103 % of control | dose: 200.0 mg/kg/injection, schedule: Q01DX001 (ip), vehicle: saline with Tween-80 102 % of control | dose: 400.0 mg/kg/injection, schedule: Q01DX001 (ip), vehicle: saline with Tween-80 102 % of control

Cc1no[n+]([O-])c1NC(=O)OCc1ccccc1
inactive: [1] 98 % of control | [2] 102 % of control | [3] 98 % of control

N=C(N)c1ccncc1
inactive: [20] 104 % of control | [22] 104 % of control | [24] 107 % of control

CC(/C=N/NC(N)=O)=N\NC(N)=O
inactive: dose: 15.0 mg/kg/injection, schedule: Q01DX Z (ip), vehicle: saline 107 % of control | dose: 30.0 mg/kg/injection, schedule: Q01DX Z (ip), vehicle: saline 107 % of control | dose: 60.0 mg/kg/injection, schedule: Q01DX Z (ip), vehicle: saline 89 % of control | dose: 60.0 mg/kg/injection, schedule: Q01DX Z (oral), vehicle: saline 91 % of control | dose: 120.0 mg/kg/injection, schedule: Q01DX Z (oral), vehicle: saline 89 % of control | dose: 240.0 mg/kg/injection, schedule: Q01DX Z (oral), vehicle: saline 91 % of control | dose: 480.0 mg/kg/injection, schedule: Q01DX Z (oral), vehicle: saline 91 % of control

COC(=O)C1CC(OS(=O)(=O)c2ccc(C)cc2)CN1C(=O)OCc1ccccc1 (stereo not drawn)
inactive: [25] 102 % of control | [26] 94 % of control | [27] 92 % of control

O/N=C1\CCCC\C1=N/O.O/N=C1\CCCC\C1=N/O.[Pd]
inactive: [19] 94 % of control | dose: 100.0 mg/kg/injection, schedule: Q04DX003 (ip), vehicle: other 102 % of control | [21] 107 % of control | dose: 200.0 mg/kg/injection, schedule: Q04DX003 (ip), vehicle: other 98 % of control | [23] 91 % of control | dose: 400.0 mg/kg/injection, schedule: Q04DX003 (ip), vehicle: other 90 % of control

CC(=O)NCc1cc(C)c(C)cc1C
inactive: [17] 100 % of control | [5] 101 % of control | [18] 104 % of control | [13] 97 % of control | dose: 400.0 mg/kg/injection, schedule: Q01DX009 (ip), vehicle: Klucel (hydroxypropylcellulose) (HPC) 96 % of control | [8] 109 % of control

N#Cc1ccc(C#N)c2ccccc12
inactive: [25] 96 % of control | [26] 98 % of control | [27] 96 % of control

Cc1cc(C)c(Br)cc1N
inactive: [4] 90 % of control | [6] 95 % of control | [7] 102 % of control

CCOc1ccc(/C=C2\C=Nc3ccccc32)cc1
inactive: [17] 91 % of control | [18] 99 % of control

N=c1ccccn1CC(O)COc1ccccc1 (stereo not drawn)
inactive: dose: 100.0 mg/kg/injection, schedule: Q01DX001 (ip), vehicle: carboxymethylcellulose (CMC) 92 % of control

CN(C)C(=O)Nc1nc2cc(Cl)c(Cl)cc2[nH]1
inactive: [4] 98 % of control | [6] 100 % of control | [7] 94 % of control

O=[N+]([O-])c1ccc(N=C(Cl)c2ccccc2)cc1
inactive: [25] 98 % of control | [26] 98 % of control | [27] 104 % of control
